Test results reported in patent publication US20180049984A1 (priority 2014, published 2018).

Test system: Bp
Set-up: species or system BALB/c mice
Conditions: mouse, in vivo

With “gentamicin [free (i.e., unencapsulated) gentamicin]” the “bacterial burdens in lungs, livers, and spleens” value was 10^3-10^5 CFUs/organ and the “time to death of all mice after infection” value was no more than 4 days.
